Experimental data as given in patent US20200278355A1, “CONJUGATED PROTEINS AND USES THEREOF” (THE SCRIPPS RESEARCH INSTITUTE, priority 2017, published 2020).

Assays:
[1] = test system: protein targets of BPK-29 in NSCLC cells (H460); assay: ABPP-SILAC competition of BPK-29yne labeling in H460 cells, proteome-wide; type: cell-based, human; conditions: beyond targets mapped by isoTOP-ABPP
Description: Isotopically labeled H460 cell lines were generated as described above. Light and heavy cells were treated with compounds (20 μM) or DMSO, respectively, for 3 h, followed by labeling with the BPK-29yne (5 μM) for 30 min. Cells were washed once ice-cold PBS and lysed in 1% Triton 100-X dissolved in PBS with protease inhibitors (Sigma) by sonication. Lysate was adjusted to 1.5 mg ml^−1 in 500 μL. Samples were conjugated by CuAAC to Biotin-PEG4-azide (5 μL of 10 mM stocks in DMSO, final concentration=100 μM). CuAAC “click” mix contained TCEP, TBTA ligand and CuSO4 as detailed for isoTOP-ABPP sample preparation. Samples were further processed as detailed in: isoTOP-ABPP streptavidin enrichment and isoTOP-ABPP trypsin TEV digestion with the following exception: after overnight incubation at 37° C. with trypsin, tryptic digests were separated from the beads with Micro Bio-Spin columns (Bio-Rad) by centrifugation (1,000×g, 1 min). Beads were rinsed once with water (200 μL) and combined with tryptic digests. […]
The MS2 spectra data were extracted and searched using RAW Convertor and ProLuCID algorithm as described in isoTOP-ABPP peptide and protein quantification. […] Ratios of heavy/light (DMSO/test compound) peaks were calculated using in-house CIMAGE software. […] The mean R values and standard deviation for multiple biological experiments were calculated from the average ratios from each replicate. […]

TXN2 = target: T1, TXN2 (Homo sapiens, UniProt Q99757); assay: isoTOP-ABPP of compound-treated H460 cells: TXN2; type: cell-based; conditions: TXN2 C90; 40 μM
T1 construct: H460 cells or H460 cells expressing luciferase in a 10 cm plate were incubated with indicated compounds; endogenous in cells; host or cells: H460
T1 sequence (Q99757 60-166): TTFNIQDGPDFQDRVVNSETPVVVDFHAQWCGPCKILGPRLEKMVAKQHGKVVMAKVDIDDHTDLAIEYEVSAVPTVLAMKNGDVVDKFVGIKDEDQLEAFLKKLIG
Description: For analysis of NR0B1 ligands or control compound reactivity, H460 cells or H460 cells expressing luciferase in a 10 cm plate were incubated with indicated compounds in serum/dye-free RPMI for 3 hours at 37° C. Cells were washed once ice-cold PBS and lysed in 1% Triton X-100 dissolved in PBS with protease inhibitors (Sigma) by sonication. Samples were clarified by centrifugation for 10 min at 16,000×g. Lysate was adjusted to 1.5 mg ml^−1 in 500 μL.
Samples were labeled for 1 h at ambient temperature with 100 μM iodoacetamide alkyne (1, IA-alkyne, 5 μL of 10 mM stock in DMSO). Samples were conjugated by copper-catalyzed azide-alkyne cycloaddition (CuAAC) to isotopically labeled, TEV-cleavable tags (TEV-tags). Heavy CuAAC reaction mixtures was added to the DMSO-treated or shGFP control samples and light CuAAC reaction mixture was added to compound-treated or shNRF2 samples. The CuAAC reaction mixture consisted of TEV tags (light or heavy, 10 μL of 5 mM stocks in DMSO, final concentration=100 μM), 1 mM tris(2-carboxyethyl)phosphine hydrochloride (TCEP; fresh 50× stock in water, final concentration=1 mM), ligand (17× stock in DMSO:t-butanol 1:4, final concentration=100 μM) and 1 mM CuSO4 (50× stock in water, final concentration=1 mM). The samples were allowed to react for 1 h at which point the samples were centrifuged (16,000×g, 5 min, 4° C.). […]

In the case of `O=C(c1ccc(N2CCOCC2)cc1)N1CCCC(N(Cc2ccccc2)C(=O)CCl)CC1` (centres unmarked) [BPK-29, N-benzyl-2-chloro-N-(1-(4-morpholinobenzoyl)azepan-4-yl)acetamide], the “further proteins engaged, found with the BPK-29yne probe” value [1] is reported as “seven” and the “BPK-29-competed isoTOP-ABPP analysis” value (TXN2) is reported as “Yes (Competed defined as showing R value ≥ 3.0 at 40 μM of test compound)”.
